Legend:
DSS colitis mice = test: Restoration of epithelial barrier integrity in DSS colitis; assay type: in vivo, C57Bl/6 mice; conditions: 30 mg/kg once daily oral gavage
Method: Colonic histopathology was assessed in mice administered dextran sodium sulfate (DSS) to assess the ability of selected example compounds to restore epithelial barrier integrity in a model of colitis presenting with epithelial erosions. Approximately seven-week old, female, C57Bl/6 mice were purchased from Envigo (Livermore, Calif.), were housed 6 per cage and acclimated for at least 2 weeks before study initiation. Animals were fed standard laboratory rodent chow Harlan Teklad Global 2018 (Maddison, Wis.). Mice had ad libitum access to food and water for the duration of the study and were maintained in a temperature and humidity controlled room on a standard light/dark cycle of 6 AM to 6 PM. DSS was prepared at 1.5% (MW 35-50 kDa, Lot # M7191, MP Biomedical) in filtered drinking water and provided to the mice from Day 0 to Day 7 (n=12/group). The DSS water was replaced once during the study on Day 3 or 4 with fresh DSS water. One cohort of mice (n=6) was provided drinking water without DSS and severed as the non-diseased control group. Vehicle (1% methylcellulose in water, 10 mL/kg) or varying doses of test compound were administered once daily by oral gavage beginning on Day −3 through Day 8. FXR agonist compounds of the invention, FXR1 and FXR2, were tested at doses of 0.3 and 1 mg/kg and compared to known FXR agonist obeticholic acid (OCA) administered at 30 mg/kg. Body weight and food and water intake were measured daily from the initiation of DSS administration. Disease activity index (DAI) scoring was performed on Day 9 prior to necropsy. Stool consistency, blood in stool, incidence of rectal prolapse, and body condition was assessed according to the scoring system in Table 25 and summed to a total DAI score:
Following DAI scoring on Day 9 and under isoflurane anesthesia mice were exsanguinated via cardiac puncture and euthanized by thoracotomy, followed by cervical dislocation. The entire colon (from the cecum to the anus) was removed, and the length recorded. The luminal contents were removed by flushing with ice-cold PBS using a blunt needle attached to a syringe and the colon was blotted dry and weighed. For each treatment group, half of the distal colon samples were prepared for cytokine analysis and half were prepared for histological evaluation. For cytokine measurement, the distal ⅓ of the colon was excised and weighed, placed into 5 mL Eppendorf tubes, frozen on dry ice and stored at −80° C., until analysis. Inflammatory cytokines were measured in colon tissue using a V-Plex custom kit (Proinflammatory Panel 1 (mouse), Mesoscale Technology). For histology, the colon was rolled by grasping the distal end and rotating to generate a spiral with a third dimension. The colon was then placed in a tissue cassette, and into a jar of 10/o buffered formalin phosphate at room temperature for at least 24 hours to ensure tissue fixation, at which point the formalin was replaced with 70% ethanol. […] Three levels of the distal colon were assigned a colitis score and the average colitis score for each animal was derived by summing the colitis scores for the three levels of colon evaluated and dividing the sum by three. The average colitis score for each treatment group was derived by summing the colitis scores for all levels of colon evaluated in the group and dividing the sum by the total number of levels of colon evaluated for that group. The presence or absence of mucosal defects (erosions or ulcerations) was also recorded for each level of colon. […]

[1] = biological target: ligand binding domain of human FXR (Homo sapiens (Human), UniProt Q96RI1); test: FXR ligand binding assay (LanthaScreen TR-FRET, SRC2-2 peptide recruitment); conditions: for Emax: extent of activation relative to GW4064, read-out: % Efficacy
Sequence of ligand binding domain of human FXR (Q96RI1 262-486): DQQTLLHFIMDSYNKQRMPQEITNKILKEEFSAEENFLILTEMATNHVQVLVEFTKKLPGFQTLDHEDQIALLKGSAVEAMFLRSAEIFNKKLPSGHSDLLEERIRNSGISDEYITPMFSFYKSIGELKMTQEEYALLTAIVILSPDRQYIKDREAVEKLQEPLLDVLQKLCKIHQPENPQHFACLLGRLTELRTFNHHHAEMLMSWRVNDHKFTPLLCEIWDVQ

[2] = biological target: human Farnesoid X receptor ligand-binding domain/Gal4 DNA binding domain chimera (Homo sapiens (Human), UniProt Q96RI1); test: Cell-based assay of FXR activation (FXR-UAS-bla HEK 293T beta-lactamase reporter); conditions: cellular FXR beta-lactamase reporter assay; for EC50: FXR-UAS-bla HEK 293T cells, 16 h, pEC50 = -log EC50; for Emax: HEK-293T, extent of activation relative to GW4064, read-out: % Efficacy
Sequence of human Farnesoid X receptor ligand-binding domain/Gal4 DNA binding domain chimera (Q96RI1 262-486, change not shown): as the sequence (Q96RI1 262-486) above
Sequence of human Farnesoid X receptor ligand-binding domain/Gal4 DNA binding domain chimera (P04386 1-147 partner): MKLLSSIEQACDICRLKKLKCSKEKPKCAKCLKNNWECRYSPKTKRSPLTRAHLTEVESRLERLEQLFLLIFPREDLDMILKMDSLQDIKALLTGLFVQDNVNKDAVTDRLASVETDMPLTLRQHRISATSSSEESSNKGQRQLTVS
Summary of the method: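 Readout is cleavage of the CCF4 FRET substrate (409 nm excitation, blue 447 nm signal) by beta-lactamase, expressed under UAS control after a Gal4–human FXR LBD chimera is activated in HEK 293T cells. Compounds were added as 3-fold dilutions for 16 h at 37 °C in 2% charcoal-stripped FBS medium. Curves were fit to a 3-parameter logistic equation to give pEC50, with % activation relative to GW4064.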

[3] = -log EC50, concentration required to produce 50% activation

EC50 [1, 3]	SMILES	DAI score (DSS colitis mice; Day 9, vs DSS vehicle)	body weight (DSS-induced reduction) (DSS colitis mice; vs DSS vehicle)	epithelial erosions (mucosal defects) observed histologically (DSS colitis mice; vs DSS vehicle)	histology colitis score (DSS colitis mice; vs DSS vehicle)	inflammatory cytokines IL-6, IL-1β, TNFα, IFNγ and KC/Gro in the colon (DSS colitis mice; vs DSS vehicle)	pEC50 [1, 3]	EC50 [2]	Emax [1]	Emax [2]
–	CC[C@H]1[C@@H](O)[C@@H]2[C@H](CC[C@]3(C)[C@@H]([C@H](C)CCC(=O)O)CC[C@@H]23)[C@@]2(C)CC[C@@H](O)C[C@@H]12 [OCA, obeticholic acid]	did not significantly affect body weight nor DAI score	did not significantly affect body weight	did not reduce the number of epithelial erosions	did not significantly affect histology colitis score	only significantly reduced the levels of IL-1β, TNFα and KC/Gro	–	–	–	–
–	O=C(O)c1cc(F)c2nc(N3C[C@@H]4C[C@H]3C[C@H]4OCc3c(-c4ccc(O)cc4)noc3C3CC3)sc2c1 [Compound I-293, 2-((1S,4S,5R)-5-((5-cyclopropyl-3-(4-hydroxyphenyl)isoxazol-4-yl)methoxy)-2-azabicyclo[2.2.1]heptan-2-yl)-4-fluorobenzo[d]thiazole-6-carboxylic acid]	–	–	–	–	–	>4.5	< 31.6 nM	–	–
–	O=C(O)c1ccc(N2C[C@@H]3C[C@H]2C[C@H]3OCc2c(-c3c(Cl)cccc3Cl)noc2C2CC2)cc1F [Compound I-103, 4-[(1S,4S,5R)-5-{[5-cyclopropyl-3-(2,6-dichlorophenyl)-1,2-oxazol-4-yl]methoxy}-2-azabicyclo[2.2.1]heptan-2-yl]-2-fluorobenzoic Acid]	–	–	–	–	–	8.7	0.794 nM	135%	103%
–	CC(=O)OCCCS(=O)(=O)NC(=O)c1ccc(N2C[C@@H]3C[C@H]2C[C@H]3OCc2c(-c3c(Cl)cccc3Cl)noc2C2CC2)cc1 [Compound I-214, 3-[({4-[(1S,4S,5R)-5-{[5-cyclopropyl-3-(2,6-dichlorophenyl)-1,2-oxazol-4-yl]methoxy}-2-azabicyclo[2.2.1]heptan-2-yl]phenyl}formamido)sulfonyl]propyl Acetate]	–	–	–	–	–	8.6	2.51 nM	138%	105%
–	CCCS(=O)(=O)NC(=O)c1ccc(N2C[C@@H]3C[C@H]2C[C@H]3OC(=O)c2c(-c3c(Cl)cccc3Cl)noc2C2CC2)cc1 [Compound I-46, (1S,4S,5R)-2-{4-[(propane-1-sulfonyl)carbamoyl]phenyl}-2-azabicyclo[2.2.1]heptan-5-yl 5-cyclopropyl-3-(2,6-dichlorophenyl)-1,2-oxazole-4-carboxylate]	–	–	–	–	–	7.9	12.6 nM	174%	110%
–	Cc1cccc(F)c1-c1noc(C2CC2)c1CO[C@@H]1C[C@@H]2C[C@H]1C(=O)N2c1ccc(C(=O)O)cc1 [Compound I-307, 4-[(1S,4R,5R)-5-{[5-cyclopropyl-3-(2-fluoro-6-methylphenyl)-1,2-oxazol-4-yl]methoxy}-3-oxo-2-azabicyclo[2.2.1]heptan-2-yl]benzoic Acid]	–	–	–	–	–	7.4	10 nM	154%	110%
–	O=C(O)c1cc(OC(F)(F)F)c2nc(N3C[C@@H]4C[C@H]3C[C@H]4OCc3c(-c4ccccc4C(F)(F)F)noc3C3CC3)sc2c1 [Compound I-20, 2-[(1S,4S,5R)-5-({5-cyclopropyl-3-[2-(trifluoromethyl)phenyl]-1,2-oxazol-4-yl}methoxy)-2-azabicyclo[2.2.1]heptan-2-yl]-4-(trifluoromethoxy)-1,3-benzothiazole-6-carboxylic Acid]	–	–	–	–	–	8.4	0.631 nM	191%	113%
2.51 nM	CC(CCS(=O)(=O)NC(=O)c1ccc(N2C[C@@H]3C[C@H]2C[C@H]3OCc2c(-c3c(Cl)cccc3Cl)noc2C2CC2)cc1)OC(=O)CCC(=O)O (stereo partly drawn) [Compound I-218, 4-({4-[({4-[(1S,4S,5R)-5-{[5-cyclopropyl-3-(2,6-dichlorophenyl)-1,2-oxazol-4-yl]methoxy}-2-azabicyclo[2.2.1]heptan-2-yl]phenyl}formamido)sulfonyl]butan-2-yl}oxy)-4-oxobutanoic Acid]	–	–	–	–	–	–	5.01 nM	146%	101%
